One test has as its system MCF7. Kind of test: Cytotoxicity against human MCF7 cells assessed as reduction in cell viability after 48 hrs by MTS assay. Conditions: MCF7, 48 h. It counts as functional, cell-based. (Tetrazolium assays rely on reduction of a dye to a coloured formazan, in cell work by metabolically active cells.)
The next test deals with A549. As to the kind of experiment: Cytotoxicity against human A549 cells assessed as reduction in cell viability after 48 hrs by MTS assay. It counts as functional, cell-based. The settings on record: A549, 48 h.
Another test relates to SMMC-7721. Kind of test: Cytotoxicity against human SMMC-7721 cells assessed as reduction in cell viability after 48 hrs by MTS assay. It counts as functional, cell-based. Conditions: SMMC-7721, 48 h.
The test system of the next test is SW480. As to the kind of experiment: Cytotoxicity against human SW480 cells assessed as reduction in cell viability after 48 hrs by MTS assay. The test is classed as functional, cell-based. Conditions: SW480, 48 h.
A further test has as its system HL-60. Kind of test: Cytotoxicity against human HL60 cells assessed as reduction in cell viability after 48 hrs by MTS assay. It counts as functional, cell-based. The settings on record: HL-60, 48 h.
A further test deals with BEAS-2B. As to the kind of experiment: Cytotoxicity against human BEAS2B cells assessed as reduction in cell viability after 48 hrs by MTS assay. The test is classed as cell-based.

Turning to `CC(C)c1cc2c(cc1O)C(=O)C[C@H]1C(C)(C)CCC[C@]21C`, the IC50 in the test with MCF7, with A549, with SMMC-7721, in the test with SW480, in the test with HL-60 and in the test on BEAS-2B was more than 10 µM in each case.
With `CC(C)c1cc2c(cc1O)[C@@]1(C)C[C@H](O)CC(C)(C)[C@@H]1CC2`, the half-inhibitory concentration (IC50) in the test with MCF7, in the test on A549, with SMMC-7721, with SW480, in the test with HL-60 and with BEAS-2B was more than 10 µM in each case.
As to `CC(C)C1=C(O)C(=O)C2=C(C=C3C(C)(C)CCC[C@@]32C)C1=O`, the IC50 in the test with MCF7, in the test on A549, in the test with SMMC-7721, with SW480, in the test on HL-60 and in the test on BEAS-2B was more than 10 µM throughout.
Take `CC(C)c1cc2c(c(O)c1O)[C@@]1(C)CCC[C@](C)(CO)C1=C(O)C2=O`: the concentration for half-maximal inhibition (IC50) in the test on MCF7, in the test with A549, in the test with SMMC-7721, in the test on SW480, with HL-60 and with BEAS-2B was more than 10 µM throughout.
For the compound `CC(C)c1cc(O)c2c(c1O)C(=O)C[C@H]1C(C)(C)CCC[C@]21C`, the IC50 in the test on MCF7, in the test with A549, in the test on SMMC-7721, with SW480, in the test with HL-60 and in the test with BEAS-2B was more than 10 µM in each case.
Take `CC(C)C1=C(O)C(=O)C2=C(C=C[C@H]3C(C)(C)CCC[C@]3(C)O2)C1=O`: the IC50 in the test on MCF7, in the test on A549, with SMMC-7721, with SW480, in the test on HL-60 and in the test with BEAS-2B was more than 10 µM in each case.
`CC(C)c1cc(C(=O)O)c2c(c1O)O[C@]1(O)[C@@](C)(CO)CCC[C@]21C`: the IC50 with MCF7, in the test with A549, with SMMC-7721, in the test with SW480, in the test on HL-60 and with BEAS-2B was more than 10 µM throughout.
Turning to `CC(C)c1cc2c(c(O)c1O)[C@@]1(C)CCCC(C)(C)[C@@H]1[C@H](O)C2=O`, the IC50 in the test on MCF7, in the test on A549, in the test with SMMC-7721, in the test with SW480, in the test with HL-60 and in the test on BEAS-2B was more than 10 µM each time.
Consider `CO[C@@H]1C2=C(C(=O)C(O)=C(C(C)C)C2=O)[C@@]2(C)CCCC(C)(C)[C@H]12`, for which the concentration for half-maximal inhibition (IC50) with MCF7, in the test on A549, in the test with SMMC-7721, with SW480, in the test on HL-60 and in the test on BEAS-2B was more than 10 µM throughout.
Turning to `Cc1ccc2cc(C(C)C)c(O)c3c2c1C(=O)CCC(C)(C)O3`, the IC50 in the test on MCF7, in the test with A549, in the test with SMMC-7721, with SW480, with HL-60 and in the test on BEAS-2B was more than 10 µM each time.
On to `CC(C)c1c(O)c(C=O)c2c(c1O)OC(O)[C@H]1C(C)(C)CCC[C@]21C` (some centres undefined), for which the IC50 with MCF7, with A549, in the test on SMMC-7721, in the test with SW480, in the test with HL-60 and in the test with BEAS-2B was more than 10 µM throughout.
As for `CC(C)c1cc(C(=O)O)c2c(c1O)O[C@]1(O)C(C)(C)[C@@H](O)CC[C@]21C`, the concentration for half-maximal inhibition (IC50) in the test with MCF7, with A549, in the test with SMMC-7721, with SW480, in the test with HL-60 and with BEAS-2B was more than 10 µM in each case.
Consider `COc1c(O)c2c(c(C=O)c1C(C)C)[C@H](O)[C@H]1C(C)(C)CCC[C@]21C`, for which the IC50 with MCF7, with A549, in the test with SMMC-7721, with SW480, in the test on HL-60 and in the test on BEAS-2B was more than 10 µM in each case.
Turning to `CC(C)C1=C[C@]23CC[C@@H]4C(=CCCC4(C)C)[C@H]2CC(=O)[C@]3(O)C1=O`, the IC50 in the test on MCF7, in the test with A549, in the test on SMMC-7721, in the test on SW480, in the test on HL-60 and in the test with BEAS-2B was more than 10 µM in each case.
On to `CC(C)c1cc2c(cc1O)C=C[C@H]1C(C)(C)CCC[C@]21C`, for which the IC50 in the test on MCF7, in the test with A549, in the test with SMMC-7721, in the test on SW480, in the test with HL-60 and in the test with BEAS-2B was more than 10 µM throughout.
As to `CC(C)c1c(O)c(O)c2c(c1C=O)[C@H](O)[C@H]1C(C)(C)CCC[C@]21C`, the half-maximal inhibitory concentration (IC50) in the test with MCF7, in the test on A549, with SMMC-7721, with SW480, with HL-60 and in the test on BEAS-2B was more than 10 µM throughout.
In the case of `CC(C)c1cc(C=O)c2c(c1O)OC(O)[C@H]1C(C)(C)CCC[C@]21C` (some centres undefined), the IC50 in the test on MCF7, in the test with A549, in the test with SMMC-7721, in the test with SW480, in the test on HL-60 and in the test with BEAS-2B was more than 10 µM in each case.
Regarding `CC(C)C1=C(O)C(=O)C2=C(C1=O)[C@H](O)[C@H]1C(C)(C)CCC[C@]21C`, the concentration for half-maximal inhibition (IC50) with MCF7, in the test with A549, in the test with SMMC-7721, with SW480, in the test on HL-60 and in the test with BEAS-2B was more than 10 µM each time.
In the case of `CC(C)c1cc2c(c(O)c1O)[C@@]1(C)CCCC(C)(C)C1=C(O)C2=O` [14-DEOXYCOLEON U], the IC50 (usually the concentration needed to halve the response being measured) in the test with MCF7 is 5.6 µM; in the test on A549, 8.4 µM; in the test on SMMC-7721, 9.2 µM; with SW480, more than 10 µM; with HL-60, 6.2 µM; in the test with BEAS-2B, more than 10 µM.
Take `COc1c(C(C)C)cc2c(c1O)[C@@]1(C)CCCC(C)(C)[C@@H]1CC2=O` [CRYPTOJAPONOL]: the IC50 in the test on MCF7, in the test on A549, in the test on SMMC-7721, in the test on SW480, with HL-60 and in the test with BEAS-2B was more than 10 µM in each case.
For the compound `CC(C)c1cc2c(c(O)c1O)[C@@]1(C)CCCC(C)(C)[C@@H]1CC2=O` [DEMETHYLCRYPTOJAPONOL], the IC50 in the test with MCF7, in the test on A549, in the test on SMMC-7721, in the test with SW480, in the test on HL-60 and in the test on BEAS-2B was more than 10 µM throughout.
For `CC(C)c1cc2c(cc1O)[C@@]1(C)CC[C@H](O)C(C)(C)[C@@H]1CC2` [HINOKIOL], the IC50 in the test on MCF7, in the test with A549, in the test on SMMC-7721, in the test on SW480, with HL-60 and in the test on BEAS-2B was more than 10 µM in each case.
As for `CC(C)c1cc2c(c(O)c1O)[C@@]1(C)CCCC(C)(C)C1=CC2=O` [SALVINOLONE], the IC50 with MCF7, in the test on A549, in the test with SMMC-7721, in the test on SW480, in the test with HL-60 and with BEAS-2B was more than 10 µM throughout.
As to `CC(C)c1cc2c(cc1O)[C@@]1(C)CCCC(C)(C)[C@@H]1CC2=O` [SUGIOL], the IC50 with MCF7, in the test with A549, in the test on SMMC-7721, in the test with SW480, with HL-60 and with BEAS-2B was more than 10 µM each time.

The record behind these values is ChEMBL document CHEMBL4811267, “Structurally Diverse Diterpenoids from the Roots of Salvia deserta Based on Nine Different Skeletal Types” (J Nat Prod, 2021).
